In PubChem BioAssay (NCI) one finds GI50 and TGI data, which are given here for four compounds.

Some test systems named below: EKVX NSCLC; HL-60(TB) leukemia; HOP-62 NSCLC; HOP-92 NSCLC; IGROV1 ovarian; LOX IMVI melanoma; MCF7 breast; NCI-H522 lung; SK-MEL-5 melanoma; SK-OV-3 ovarian.
Test in all cases: growth of human tumour cells (NCI), 48 h

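Cultured in 96-well plates, cells were exposed to test compound for 48 hours across five concentrations. GI50 = concentration required for 50% inhibition of growth. TGI is the concentration that stops growth completely.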

As to `CCCCCCCCCCC[C@@H](C[C@H]1OC(=O)[C@H]1CCCCCC)OC(=O)[C@@H](CC(C)C)NC=O`, the GI50 with EKVX NSCLC was 27.4 µM; in the experiment on HL-60(TB) leukemia it was 1.75 µM; in the experiment on HOP-62 NSCLC it was 4.14 µM; with HOP-92 NSCLC, 1.55 µM; with IGROV1 ovarian it was 7.62 µM; in the experiment with LOX IMVI melanoma it was 1.65 µM. The GI50 in the experiment on MCF7 breast is 3.07 µM; in the experiment with NCI-H522 lung, 5.56 µM; in the experiment with SK-MEL-5 melanoma it was 2.8 µM; with SK-OV-3 ovarian, 10.1 µM. For the same compound, the TGI in the experiment on EKVX NSCLC was more than 100 µM; in the experiment with HL-60(TB) leukemia, 4.34 µM; in the experiment with HOP-62 NSCLC it was 29.5 µM; in the experiment on HOP-92 NSCLC it was 16.1 µM; in the experiment on IGROV1 ovarian, 55.7 µM; in the experiment on LOX IMVI melanoma, 9.6 µM. For the same compound, the TGI is 13.8 µM with MCF7 breast, 26.4 µM in the experiment on NCI-H522 lung, 10.4 µM in the experiment on SK-MEL-5 melanoma and 62.8 µM in the experiment with SK-OV-3 ovarian.

As for `COc1ccc2c(c1)[nH]c(=O)c1c3cc(OC)c(OC)cc3cn21`, the GI50 in the experiment with EKVX NSCLC is 0.0312 µM; in the experiment with HL-60(TB) leukemia, less than 0.01 µM; in the experiment on HOP-62 NSCLC it was 0.0936 µM; with HOP-92 NSCLC, 0.0272 µM; with IGROV1 ovarian, less than 0.0178 µM; with LOX IMVI melanoma, less than 0.01 µM. In addition, the GI50 was 0.0323 µM with MCF7 breast, less than 0.01 µM with NCI-H522 lung, less than 0.01 µM with SK-MEL-5 melanoma and less than 0.0111 µM in the experiment with SK-OV-3 ovarian. Also, the TGI with EKVX NSCLC is 18.9 µM; with HL-60(TB) leukemia, less than 0.0104 µM; in the experiment with HOP-62 NSCLC it was 21 µM; in the experiment on HOP-92 NSCLC, 17.4 µM; in the experiment with IGROV1 ovarian, 0.233 µM; with LOX IMVI melanoma, 1.69 µM. Moreover, the TGI in the experiment with MCF7 breast was determined as 1.28 µM; with NCI-H522 lung, 0.0125 µM; in the experiment on SK-MEL-5 melanoma it was 11.2 µM; with SK-OV-3 ovarian it was 17.5 µM.

For `CC(=O)Nc1ccc(-c2csc(Nc3cccc(-c4csc(-c5ccccc5)n4)c3)n2)cc1`, the GI50 with EKVX NSCLC was 20.2 µM; with HL-60(TB) leukemia, 29.7 µM; in the experiment on HOP-62 NSCLC, more than 50 µM; in the experiment on HOP-92 NSCLC, 42.9 µM; in the experiment on IGROV1 ovarian, 21.5 µM; with LOX IMVI melanoma, 7.71 µM. For the same compound, the GI50 with MCF7 breast is 20 µM; with NCI-H522 lung, 24.2 µM; in the experiment with SK-MEL-5 melanoma, 18.7 µM; in the experiment on SK-OV-3 ovarian, more than 50 µM. For the same compound, the TGI is more than 50 µM in the experiment with EKVX NSCLC; more than 50 µM in the experiment with HL-60(TB) leukemia; more than 50 µM with HOP-62 NSCLC; more than 50 µM in the experiment on HOP-92 NSCLC; more than 50 µM in the experiment with IGROV1 ovarian; 18.1 µM with LOX IMVI melanoma. Further, the TGI in the experiment with MCF7 breast, in the experiment with NCI-H522 lung, in the experiment with SK-MEL-5 melanoma and in the experiment on SK-OV-3 ovarian was more than 50 µM each time.

Regarding `Cc1ccc2nc3c(n2c1)C(=O)C(=O)c1ccccc1-3`, the GI50 in the experiment with EKVX NSCLC was 0.654 µM; with HL-60(TB) leukemia it was 0.17 µM; with HOP-62 NSCLC it was 0.353 µM; with HOP-92 NSCLC, 0.71 µM; in the experiment with IGROV1 ovarian, 0.319 µM; in the experiment on LOX IMVI melanoma it was 0.132 µM. For the same compound, the GI50 in the experiment on MCF7 breast was 0.14 µM; in the experiment with NCI-H522 lung, 0.216 µM; in the experiment with SK-MEL-5 melanoma, 0.112 µM; with SK-OV-3 ovarian, 1.01 µM. For the same compound, the TGI in the experiment with EKVX NSCLC was 1.65 µM; in the experiment on HL-60(TB) leukemia, 0.602 µM; in the experiment on HOP-62 NSCLC, 0.961 µM; in the experiment on HOP-92 NSCLC, 2.17 µM; in the experiment on LOX IMVI melanoma, 0.276 µM; with MCF7 breast, 0.308 µM. Further, the TGI came to 0.538 µM in the experiment with NCI-H522 lung, 0.244 µM in the experiment on SK-MEL-5 melanoma and 2.47 µM in the experiment on SK-OV-3 ovarian.
